Experimental data as given in patent publication US20240264169A1, “METHOD FOR THE QUANTIFICATION OF THE ACTIVATION STATE OF G-PROTEIN-COUPLED RECEPTORS IN A HUMAN BIOLOGICAL SAMPLE” (ALDA S.R.L., priority 2021, published 2024).
Several values for one entry are separate records, joined by “and”; a condition that tells them apart may be missing. Equal values may be shown once.

Legend:
Type in all cases: cell-based
human neutrophils [1] = assay: Neutrophil morphology upon fixation (spherical vs polarized)
Procedure: (§1) Precisely this last aspect, however, offers added value in monitoring the interaction of the receptor with β-Arrestin. Indeed, in this scenario, the maximum interaction value between these two proteins is recorded 8 to 12 minutes after the interleukin stimulus. The measurement of the activation state occurs within a defined time window, the beginning of which coincides with the time of sampling (FIG. 1a). By subjecting the blood aliquots to a stasis under controlled conditions, it is possible to obtain a homogeneous activation state among the neutrophils in the control sample, estimated by quantifying the amount of receptor that is bound to β-Arrestin at the time of fixation. […] The amount of activation is obtained by difference with the basal state, which corresponds to the amount of desensitized receptor found after the same time interval in each experiment. The correlation between FRET signal intensity and morphology (FIG. 4c) allows us to assess the effectiveness of the inhibitor: the change in morphology from spherical to polarized in the presence of high FRET, indicates the persistence of a G-protein pathway-mediated signal. In contrast, the presence of high FRET in perfectly spherical cells (indistinguishable from those observed in the control aliquot), is an indication of high desensitization of the receptor by β-Arrestins, and thus the inhibitor is able to promote deactivation of the receptor, with the effect of a drastic reduction in G-protein-mediated signaling.
Thus, the treatment with allosteric inhibitors generates high receptor desensitization. However, if IL-8 treatment is conducted in the presence of allosteric inhibitor, neutrophil morphology is maintained spherical even under stimulated conditions. […] In the quiescent or competitive inhibition condition, the neutrophil consistently retains a spherical morphology.
The most striking difference between the condition in which the sample is treated with IL-8 and the condition in which the sample is pretreated with inhibitor and then subjected to the IL-8 stimulus concerns morphology. […]

human neutrophils [2] = assay: Cell count after treatment of blood sample
Excerpt: Another aspect that strongly distinguishes the sample activated with IL8 alone and the IL8_+_navarixin sample is the cell count after treatment.

CXCR1//ArrB interaction = biological target: T1, CXCR1//ArrB interaction (Homo sapiens, UniProt P25024); assay: FRET assay (intensity-based acceptor photobleaching) of CXCR1//β-Arrestin interaction on neutrophils
T1 construct: expression and localization of endogenous CXCR1 protein; endogenous in cells; host or cells: human neutrophils in venous blood aliquots
T1 sequence (P25024 1-350): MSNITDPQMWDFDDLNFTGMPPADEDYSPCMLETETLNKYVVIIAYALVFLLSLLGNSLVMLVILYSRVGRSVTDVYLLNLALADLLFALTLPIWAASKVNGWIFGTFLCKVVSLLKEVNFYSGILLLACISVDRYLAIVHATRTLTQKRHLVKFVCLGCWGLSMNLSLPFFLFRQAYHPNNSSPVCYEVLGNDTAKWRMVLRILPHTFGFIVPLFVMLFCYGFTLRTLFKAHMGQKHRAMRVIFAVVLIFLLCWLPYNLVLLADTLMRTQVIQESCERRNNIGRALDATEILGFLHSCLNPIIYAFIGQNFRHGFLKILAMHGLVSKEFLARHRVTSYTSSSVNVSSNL
Excerpt: Next, the measured FRET efficiency is related to the abundance of the interaction between the donor and acceptor probe within each pixel of the image. Detection of the FRET signal consists of a precise estimate of the fluorescent emission (FD) intensity or emission decay rate (<τ>) of the donor probe. The quantization of FD in a biological sample appears to be inexpensive in terms of complexity and cost of the instrumentation required for analysis. […] Below is the formula used to calculate the FRET (pixel by pixel) efficiency shown in the images reported in this study:
as §1, with “signal.” for “signal. In contrast, the presence of high FRET in perfectly spherical cells (indistinguishable from those observed in the control aliquot), is an indication of high desensitization of the receptor by β-Arrestins, and thus the inhibitor is able to promote deactivation of the receptor, with the effect of a drastic reduction in G-protein-mediated signaling.”
Next, the FRET assay for measuring the CXCR1//ArrB interaction on neutrophils was repeated, operating in triplicate (FIG. 4). A first control sample, CTRL-DMSO, corresponds to the sample set at 30 minutes; this time is required for neutrophils to return to a resting state after mechanical activation due to handling. […] Values reported refer to the measurements on 15 neutrophil cells of donor fluorophore de-quenching following acceptor photo-bleaching, obtained by the INTENSITY-BASED ACCEPTOR PHOTOBLEACHING approach (FIG. 7 and Table 1).
The CTRL of each triplicate consists of a sister sample subjected to the same treatment conditions unless drug addition. Exclusively for the time zero sample, fixation was carried out at about one minute after sampling, and the analysis reported high FRET probably due to heterologous desensitization. For all remaining samples, fixation was performed at 30 minutes after sampling, an interval of time during which the drug was allowed to act, directly added to the tube of each treated sample.

[3] = biological target: T2, CXCR1-βArrestin2 interaction (Homo sapiens, UniProt P25024); assay: FRET-FLIM donor probe lifetime measurement, anti-CXCR1 donor / anti-βArrestin2 acceptor, neutrophils; conditions: Reparixin 100 μg/ml; one value per cell (3 cells); Levenberg-Marquardt fitting; Control 2.57-2.63, Donor only 2.64-2.67
T2 construct: expression and localization of endogenous CXCR1 protein; endogenous in cells; host or cells: human neutrophils in venous blood aliquots
T2 sequence (P25024 1-350): T1 sequence (P25024 1-350)
Excerpt: The fitting model used is bi-exponential and the measurement is repeated for each individual neutrophil: a global decay curve consisting of the summation of the curves recorded in all the pixels that make up the analyzed cell is generated for each of them. The rate of decay of the fluorescence intensity of the total donor population (bound and unbound receptor) is of the exponential type and follows the trend described by the formula:
The decay acquired in each region of interest (ROI) corresponds to the lifetime obtained from the cumulative histogram consisting of the summation of all pixels contained in the ROL The histogram is interpolated by bi-exponential fitting, and the lifetime calculated on the two components (A1 and A2) with the following equation:
The expression used to calculate the FRET efficiency by using the FLIM technique is as follows:
where tD is the absolute donor lifetime, measured in a sample containing only the donor probe, and tD-A is the donor lifetime in a sample subjected to the same condition, in which both donor and acceptor probes are present.
To correctly interpret the following graph (FIG. 8b), remember that the presence of interaction induces a lowering of the donor probe lifetime; this lowering is quantified by the slope of the decay curve, which corresponds to the donor probe lifetime (τ). The value of τ can be derived numerically from the nonlinear fitting of the decay curve.
The Levenberg-Marquardt algorithm, which is based on the method of least squares, was used for nonlinear fitting of the recorded decay curves.
The values of r extrapolated from the nonlinear fitting by using the Levenberg-Marquardt algorithm were further verified using the maximum likelihood estimation (MLE) method, which allows for greater accuracy in evaluating the parameters obtained from the statistical distribution of photonic phenomena (such as the decay of a fluorophore's emission), as these phenomena are generally governed by a Poissonian distribution. The values shown in the table are those calculated exclusively by the Levenberg-Marquardt algorithm.

CXCR1-GaI interaction = biological target: T3, CXCR1-GaI interaction (Homo sapiens, UniProt P25024); assay: FRET-FLIM analysis of the CXCR1-GaI interaction pair; conditions: in the presence of IL-8 (10 nM)
T3 construct: expression and localization of endogenous CXCR1 protein; endogenous in cells; host or cells: human neutrophils
T3 sequence (P25024 1-350): T1 sequence (P25024 1-350)
Procedure: The receptor activation status was measured through the quantification of CXCR1-GaI and CXCR1-Arrestin interactions. […] In this circumstance, the minimum value of FRET is assumed, which serves as an internal control.

[4] = IL-8 treatment in the presence of allosteric inhibitor
[5] = REPARIXIN 100 ugmL-1, 30 min, 15 neutrophil cells, each column one of triplicate samples

Row | FRET (donor de-quenching after acceptor photobleaching), Mean (CXCR1//ArrB interaction; [5]) | FRET (donor de-quenching after acceptor photobleaching), Median (CXCR1//ArrB interaction; [5]) | FRET versus control (interaction with β-Arrestins) (CXCR1//ArrB interaction; combined treatment IL-8 + allosteric inhibitor) | FRET in analyzed cells (CXCR1//ArrB interaction; highest concentration of Reparixin (100 μg/mL), 30 min) | τ (donor probe lifetime) [3] | signal lifetime versus non-activated control (CXCR1-GaI interaction) | time of maximum receptor-β-Arrestin interaction after stimulus (CXCR1//ArrB interaction; after the interleukin stimulus) [min] | Compound | neutrophil morphology (human neutrophils [1]; [4]) | number of cells compared to control (human neutrophils [2]; sample pretreated with inhibitor, then stimulated with IL-8) | FRET in analyzed cells (CXCR1//ArrB interaction; Reparixin 40 ug/ml, two of the three samples) | neutrophil morphology (human neutrophils [1]; IL-8 treatment, inhibitor absent) | cells found at the time of fixation relative to control (human neutrophils [2]; sample stimulated with IL-8 alone) | amount of receptor in the desensitized state (in complex with b-Arrestin2) (CXCR1//ArrB interaction; IL-8 stimulation, in presence and absence of allosteric modulator)
1 | – | – | – | – | – | – | – | CC[C@@H](Nc1c(Nc2cccc(C(=O)N(C)C)c2O)c(=O)c1=O)c1ccc(C)o1 [Navarixin] | spherical | same number of cells | – | – | – | –
2 | 32.35 and 27.67 and 32.60 | 38.96 and 21.92 and 35.03 | higher than control | high in many cells | 2.05 and 2.12 and 2.1 | – | – | CC(C)Cc1ccc([C@@H](C)C(=O)NS(C)(=O)=O)cc1 [Reparixin] | spherical | – | many cells with FRET values equal to the control | – | – | –
3 | – | – | – | – | – | decrease in signal lifetime | 8 to 12 | interleukin-8 [IL-8] | – | – | – | polarized | about 20% | significant increase
